Reference: patent publication EP0072352B1, “Benzazepin-2-ones, process for their preparation, pharmaceutical preparations containing these compounds and the compounds for therapeutical use” (CIBA-GEIGY AG, priority 1981, dated 1983)

Columns and labels:
[1] = system: durch Angiotensin I (AI) hervorgerufene Blutdrucksteigerung; assay: Inhibition of the angiotensin I (AI) induced blood pressure rise after intravenous administration of the test compound; format: in vivo, Ratten; conditions: for % AI Hemmung: rat, mean inhibition within 30 min after administration
Text: Die Verbindungen der Erfindung zeigen nach intravenöser oder oraler Verabreichung eine hemmende Wirkung gegen die durch Angiotensin I hervorgerufene Blutdrucksteigerung auch an normotensiven Ratten. Das Angiotensin 1 wird durch das genannte Umwandlungsenzym zu der stark blutdrucksteigernden Substanz Angiotensin II hydrolysiert. Die Hemmung des genannten Enzyms blockiert die Bildung von Angiotensin II aus Angiotensin I. In dieser Weise wird die durch Angiotensin I provozierte Blutdrucksteigerung abgeschwächt.
Der entsprechende in-vivo-Test mit den intravenös verabreichten Verbindungen wird mit männlichen normotensiven Ratten, welche mit dem Natriumsalz der 5-Äthyl-5-(1-methylpropyl)-2-thiobarbitursäure narkotisiert sind, durchgeführt. Eine femorale Arterie und eine Wadenvene werden mit je einer Hohlnadel für die direkte Messung des Blutdrucks und für die intravenöse Verabreichung des Angiotensins I und einer erfindungsgemäßen Verbindung versehen. Nach der Stabilisierung des basalen Blutdrucks wird die Druckänderung nach drei, in 5-minütigen Intervallen, i. v. durchgeführten Reizungen mit 333 ng/kg Angiotensin I bestimmt. Solche Druckänderungen werden wieder nach 5,10,15, 30 und 60 Minuten nach intravenöser Verabreichung der zu prüfenden Verbindung bestimmt. Die letztgenannten Druckänderungen werden mit den Anfangswerten verglichen. Jede festgestellte Abnahme vom Ansprechen des Blutdrucks ist ein Hinweis auf die Hemmung des Enzyms, welches das Angiotensin I umwandelt. Als Illustration der Erfindung sei auf das « höher schmelzende » 1-Carboxymethyl-3-(1-äthoxycarbonyl-3-phenylpropylamino)-2,3,4,5-tetrahydro-1H-[1] benzazepin-2-on des Beispiels 1 und auf das entsprechende S,S-Enantiomere des Beispiels 12 hingewiesen. Diese hemmen vollständig die Blutdrucksteigerung nach Angiotensin I-Reizung während 30 Minuten nach intravenöser Verabreichung einer Dosis von 1 mg/kg pro Substanz.
In der in vivo Prüfungsmethode wird zuerst durch Verabreichung des Angiotensins I (AI) an das Versuchstier eine Blutdrucksteigerung hervorgerufen. Es wird dann die Hemmung der einzelnen Verbindungen auf diese Blutdrucksteigerung gemessen.
11. Methode der Hemmung der durch Angiotensin I (AI) hervorgerufenen Blutdrucksteigerung, durch intravenöse Verabreichung der Testverbindung (% AI-Hemmung)
In diesen Untersuchungen wird wie oben beschrieben, je ein Katheter in eine femurale Arterie und in eine Wadenvene der Ratte eingeführt.
Der arterielle Druck wurde von dem Arterienkatheter aus registriert, während man Angiotensin I (AI) und die einzelnen Testverbindungen durch den Venenkatheter injiziert hatte. Die Hemmung der durch Angiotensin I verursachten Blutdrucksteigerung ist als prozentuelle Abnahme des vor der Behandlung erhaltenen Kontrollwertes der Blutdrucksteigerung ausgedrückt und in der Tabelle als Durchschnittswert der Hemmung innerhalb 30 Minuten nach Verabreichung der Testsubstanz angegeben. (Siehe Tabelle Seite 41 f.)

[2] = system: spontan hypertensiven Ratten; assay: Antihypertensive effect in spontaneously hypertensive rats, indirect measurement of systolic blood pressure (tail cuff), oral dosing; format: in vivo; conditions: 3 mg/kg p. o., once daily for four days, average, measured 2 and 4 h after dosing on the last two days
Text: Die in vivo blutdrucksenkende Wirkung wird entweder direkt mit einem Katheter, der in die femorale Arterie des Versuchstieres eingeführt ist, oder indirekt durch Sphygmomanometrie am Rattenschwanz, und einem Übertragungsinstrument registriert. Der Blutdruck wird vor und nach der Verabreichung des Wirkstoffes in mm Hg bestimmt.
So sind die antihypertensiven Wirkungen in spontan hypertensiven Ratten durch indirekte Messung des systolischen Blutdrucks nachweisbar. Nicht narkotisierte Ratten werden einzeln in Käfigen, welche ihre Bewegung einschränken, in eine leicht geheizte Kammer gebracht. Ein Puls-Sensor wird innerhalb einer aufblasbaren Manschette am Schwanz jeder Ratte angebracht. Die Manschette wird aufgeblasen, um die Schwanz-Arterie zu schließen. Der Druck in der Manschette wird kontinuierlich reduziert, und der systolische Druck entspricht demjenigen Druck in der Manschette, bei welchem die Pulswellen wieder auftreten. Nach der Registrierung von Kontrollwerten des Blutdrucks und der Herzfrequenz werden die Testverbindungen peroral einmal täglich an vier aufeinanderfolgenden Tagen verabreicht. Zusätzliche Blutdruckmessungen werden üblicherweise nach 2,0, 4,0 und 23,5 Stunden nach jeder täglichen Dosis vorgenommen. Die Werte werden mit denjenigen von Ratten, welche lediglich mit der Trägersubstanz behandelt worden sind, verglichen. […]

O=C(O)CN1C(=O)[C@@H](N[C@@H](CCc2ccccc2)C(=O)O)CCc2ccccc21 [Beispiel 19, 1-Carboxymethyl-3S-(1S-carboxy-3-phenylpropylamino)-2,3,4,5-tetrahydro-1H-[1] benzazepin-2-on]
% AI Hemmung ([1]; i.v. Dosis 0.007 mg/kg): 14% | % AI Hemmung ([1]; i.v. Dosis 0.01 mg/kg): 28% | % AI Hemmung ([1]; i.v. Dosis 0.02 mg/kg): 69% | % AI Hemmung ([1]; i.v. Dosis 0.03 mg/kg): 70% | % AI Hemmung ([1]; i.v. Dosis 0.06 mg/kg): 84% | % AI Hemmung ([1]; i.v. Dosis 0.1 mg/kg): 93%

CCOC(=O)[C@H](CCc1ccccc1)N[C@H]1CCc2ccccc2N(CC(=O)O)C1=O (racemic) [Beispiel 1, 1-Carboxymethyl-3-(1-äthoxycarbonyl-3-phenylpropylamino)-2,3,4,5-tetrahydro-1H-[1] benzazepin-2-on]
Blutdruck gesenkt (antihypertensiver Effekt) [2]: 40 mm Hg | Hemmung der Blutdrucksteigerung nach Angiotensin I-Reizung ([1]; 1 mg/kg i.v., anaesthetised male normotensive rats, during 30 min after administration, 333 ng/kg angiotensin I): vollständig | % AI Hemmung ([1]; i.v. Dosis 0.1 mg/kg): 50% | % AI Hemmung ([1]; i.v. Dosis 1.0 mg/kg): 100% | % AI Hemmung ([1]; i.v. Dosis 10 mg/kg): 100%
